Data reported in paper PMC10709440, “High-throughput ligand profile characterization in novel cell lines expressing seven heterologous insect olfactory receptors for the detection of volatile plant biomarkers” (Scientific Reports, 2023).
Where two headings read alike, the source gives them in different places.

Experiments:
Drosophila OR13a = target: T1, Drosophila OR13a (Drosophila melanogaster, UniProt Q9VXL0); assay: Calcium ion fluorescence (GCaMP6) assay, OR13a stable HEK293 cell line; type: cell-based
T1 construct: expressed in transfected cells
T1 sequence (Q9VXL0 1-418): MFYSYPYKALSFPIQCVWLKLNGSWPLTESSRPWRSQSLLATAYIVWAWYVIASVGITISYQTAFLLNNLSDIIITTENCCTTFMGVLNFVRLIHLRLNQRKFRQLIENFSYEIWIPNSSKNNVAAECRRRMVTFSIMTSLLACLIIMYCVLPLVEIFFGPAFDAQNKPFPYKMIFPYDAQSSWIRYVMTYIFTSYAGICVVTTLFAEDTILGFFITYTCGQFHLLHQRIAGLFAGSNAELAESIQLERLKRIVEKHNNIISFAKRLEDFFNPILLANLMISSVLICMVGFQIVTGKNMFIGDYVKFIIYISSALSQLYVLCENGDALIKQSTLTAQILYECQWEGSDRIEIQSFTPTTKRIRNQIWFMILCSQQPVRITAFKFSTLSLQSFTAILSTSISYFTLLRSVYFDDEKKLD
T1 sequence (Q9VNB5 1-486 partner): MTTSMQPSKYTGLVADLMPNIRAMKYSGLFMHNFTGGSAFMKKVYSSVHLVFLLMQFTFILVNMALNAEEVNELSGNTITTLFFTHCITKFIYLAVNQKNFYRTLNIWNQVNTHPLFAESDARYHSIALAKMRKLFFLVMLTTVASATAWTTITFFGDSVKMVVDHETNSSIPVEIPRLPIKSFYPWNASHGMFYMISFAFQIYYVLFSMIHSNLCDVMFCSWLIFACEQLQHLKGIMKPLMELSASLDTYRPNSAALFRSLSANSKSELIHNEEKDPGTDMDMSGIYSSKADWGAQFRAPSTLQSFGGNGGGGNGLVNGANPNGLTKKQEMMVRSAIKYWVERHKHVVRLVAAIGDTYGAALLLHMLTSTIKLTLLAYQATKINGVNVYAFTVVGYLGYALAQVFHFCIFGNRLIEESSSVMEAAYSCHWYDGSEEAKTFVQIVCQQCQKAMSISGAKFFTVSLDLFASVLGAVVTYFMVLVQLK
Method: (§1) These VUAA1 normalized ∆F values were used to compare the different receptors and ligands.
(§2) The concentration-dependent effect of the reference ligands on their cognate cell lines was examined in more detail. Twelve different ligand concentrations were measured on each cell line in an overall 0.01 μM to 100 μM concentration range with 5 repetitions with three technical replicates each time.
(§3) Twelve thousand to 18,000 cells were plated into each well of a black wall, transparent bottom 384-well microplate (Greiner) 48 h or 72 h before the measurements and were simultaneously treated with 1 μg/mL doxycycline. […] The plate has 24 columns, thus we could record responses in up to eight different cell lines in each plate. On the day of the experiment, the growth medium was replaced with 20 µL assay buffer/well (140 mM NaCl, 5 mM KCl, 2 mM CaCl2, 1 mM MgCl2, 5 mM HEPES-Na, 20 mM glucose, pH 7.3, 340 mOsm). […] Baseline fluorescence (F0) was recorded for 5 s, after which 7 µL VOC buffer (140 mM NaCl, 5 mM KCl, 2 mM CaCl2, 1 mM MgCl2, 5 mM HEPES-Na, 31 mM glucose, 0.1% DMSO, pH 7.3, 340 mOsm) was injected into each well in one row and the fluorescence response was recorded for an additional 30 s, at a rate of one read/sec. VOC solutions (VOC buffer with 4× concentration of the final measured VOC concentration, 9 µL/well was injected) were measured on the same wells in a second round with the same protocol. Each individual concentration of a specific VOC sample was recorded in three wells for the same cell line on the same microplate. The raw data were exported in xls file format, F0 and FMAX values, and the fluorescence intensity changes (∆F) were calculated in Excel (Microsoft) (Supplementary file Data summary.xlsx) using the following equation: ΔF=FMAX-F0/F0 (see also Fig. 1C). On each plate, we recorded the response of each cell line to 50 µM VUAA1. The average of these ∆F values of each cell line were used to calculate the VUAA1-normalized values for the rest of the plate, by dividing VOC response ∆F values by the average VUAA1 response ∆F value of the corresponding OR cell line. Each VOC-OR combination was measured three times as technical replicates. […] The average of these replicates were used as one ∆F and VUAA1-normalized ∆F in the following analysis.
(§4) In the next rows we tested the reference VOCs (or other VOCs known to activate the corresponding cell lines), in order to test if all cell lines are responsive. The remaining rows were used to test VOCs with unknown effect.
(§5) The recorded FMAX, F0, ∆F, VUAA1-normalized ∆F values, as well as the OR name, the name of the tested sample, and the final concentration for each well were copied into supplementary file Data summary.xlsx, that was used to summarize all the plates recorded. Here, the averages of the measurements were calculated for each receptor-VOC-concentration combination.

Drosophila OR98a = target: T2, Drosophila OR98a (Drosophila melanogaster, UniProt Q9VAZ3); assay: Calcium ion fluorescence (GCaMP6) assay, OR98a stable HEK293 cell line; type: cell-based; conditions: for Average response: OR98a cell line, average of biological replicates, fraction of VUAA1 response; for DF norm AVERAGE OR98a: normalized fluorescence change, values below 0.05 threshold given as 0
T2 construct: expressed in transfected cells
T2 sequence (Q9VAZ3 1-397): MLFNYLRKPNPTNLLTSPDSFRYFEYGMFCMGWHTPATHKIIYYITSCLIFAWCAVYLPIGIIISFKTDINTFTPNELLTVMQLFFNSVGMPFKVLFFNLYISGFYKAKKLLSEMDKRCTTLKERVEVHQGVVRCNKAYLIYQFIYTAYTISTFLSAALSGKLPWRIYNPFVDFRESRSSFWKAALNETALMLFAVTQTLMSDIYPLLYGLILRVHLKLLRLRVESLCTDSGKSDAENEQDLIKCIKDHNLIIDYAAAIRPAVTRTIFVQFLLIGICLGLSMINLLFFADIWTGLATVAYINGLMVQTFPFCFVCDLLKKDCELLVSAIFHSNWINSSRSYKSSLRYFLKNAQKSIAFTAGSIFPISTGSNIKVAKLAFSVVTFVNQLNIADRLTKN
T2 sequence (Q9VNB5 1-486 partner): T1 sequence (Q9VNB5 1-486 partner)
Method: as §1, §2, §3, §4, §5

[1] = concentration 1, normalized fluorescence change, values below 0.05 threshold given as 0
[2] = concentration 10, normalized fluorescence change, values below 0.05 threshold given as 0
[3] = concentration 100, normalized fluorescence change, values below 0.05 threshold given as 0
[4] = HEK293, read-out: OR13a Average response (VUAA1-normalized), 1 μM VOC, 50 μM VUAA1 = 1, responses not exceeding 0.05 considered 0
[5] = HEK293, read-out: OR13a Average response (VUAA1-normalized), 10 μM VOC, 50 μM VUAA1 = 1, responses not exceeding 0.05 considered 0
[6] = HEK293, read-out: OR13a Average response (VUAA1-normalized), 100 μM VOC, 50 μM VUAA1 = 1, responses not exceeding 0.05 considered 0
[7] = HEK293, read-out: OR13a response (VUAA1-normalized response), VOC concentration 1 μM
[8] = HEK293, read-out: OR13a response (VUAA1-normalized response), VOC concentration 10 μM
[9] = HEK293, read-out: OR13a response (VUAA1-normalized response), VOC concentration 100 μM
[10] = HEK293, read-out: Average response
[11] = HEK293, read-out: OR98a response (VUAA1-normalized response)

Structure (SMILES)	DF norm AVERAGE OR13a (Drosophila OR13a; [1])	DF norm AVERAGE OR13a (Drosophila OR13a; [2])	DF norm AVERAGE OR13a (Drosophila OR13a; [3])	DF norm AVERAGE OR98a (Drosophila OR98a; concentration 1)	DF norm AVERAGE OR98a (Drosophila OR98a; concentration 10)	DF norm AVERAGE OR98a (Drosophila OR98a; concentration 100)	activation at 1 µM (Drosophila OR13a; [4]) [%]	activation at 10 µM (Drosophila OR13a; [5]) [%]	activation at 100 µM (Drosophila OR13a; [6]) [%]	activation at 1 µM (Drosophila OR13a; [7]) [%]	activation at 10 µM (Drosophila OR13a; [8]) [%]	activation at 100 µM (Drosophila OR13a; [9]) [%]	activation at 1 µM (Drosophila OR98a; [10]) [%]	activation at 10 µM (Drosophila OR98a; [10]) [%]	activation at 100 µM (Drosophila OR98a; [10]) [%]	activation at 1 µM (Drosophila OR98a; [11]) [%]	activation at 10 µM (Drosophila OR98a; [11]) [%]	activation at 100 µM (Drosophila OR98a; [11]) [%]	other results
C=C(C)C1CCC2(C)OC2C1 (single isomer, unassigned; (+)) [(+)-limonene oxide]	0	0	0	0	0	0													OR13a Average response (VUAA1-normalized) (Drosophila OR13a; 1 μM VOC, 50 μM VUAA1 = 1, responses not exceeding 0.05 considered 0): 0.00; OR13a Average response (VUAA1-normalized) (Drosophila OR13a; 10 μM VOC, 50 μM VUAA1 = 1, responses not exceeding 0.05 considered 0): 0.00; OR13a Average response (VUAA1-normalized) (Drosophila OR13a; 100 μM VOC, 50 μM VUAA1 = 1, responses not exceeding 0.05 considered 0): 0.00; OR13a response (VUAA1-normalized response) (Drosophila OR13a; VOC concentration 1 μM): 0.00; OR13a response (VUAA1-normalized response) (Drosophila OR13a; VOC concentration 10 μM): 0.00; OR13a response (VUAA1-normalized response) (Drosophila OR13a; VOC concentration 100 μM): 0.00; OR98a response (VUAA1-normalized response) (Drosophila OR98a; VOC concentration 1 μM): 0.00; OR98a response (VUAA1-normalized response) (Drosophila OR98a; VOC concentration 10 μM): 0.00; OR98a response (VUAA1-normalized response) (Drosophila OR98a; VOC concentration 100 μM): 0.00; Average response (Drosophila OR98a; cc. 1 µM): 0.00; Average response (Drosophila OR98a; cc. 10 µM): 0.00; Average response (Drosophila OR98a; cc. 100 µM): 0.00
Cc1ccc(C)c(C)c1 [1,2,4-trimethylbenzene]	0	0	0	0	0.1254	0.05229	0	0	0	0	0	0	0	13	5	0	13	5	
COc1cccc(OC)c1 [1,3-dimethoxy benzene]	0	0	0	0	0	0	0	0	3.71	0	0	0	0	1.66	3.31	0	0	0	
CCCCCCCO [1-heptanol]	0	0.145	0.219	0	0.05219	0	2	15	22	0	15	22	4	5	0	0	5	0	
CCCCOC(=O)CC [butyl propanoate]							0	0	0	0	0	0							DF norm AVERAGE OR13a (Drosophila OR13a; ligand concentration 1 (unit not given), threshold 0.05, below shown as 0): 0; DF norm AVERAGE OR13a (Drosophila OR13a; ligand concentration 10 (unit not given), threshold 0.05, below shown as 0): 0; DF norm AVERAGE OR13a (Drosophila OR13a; ligand concentration 100 (unit not given), threshold 0.05, below shown as 0): 0
